Laboratory results from a melting point compilation (Tetko et al.; mined from patent text by program, amines drawn as free bases though some values may be those of a salt).

First: CN1CCN(Cc2cc(-c3ccccc3)c3c(n2)OCCN(Cc2cc(C(F)(F)F)cc(C(F)(F)F)c2)C3=O)CC1
Second: COc1cccc(Cn2c(=O)c3c(N4CCN(C)CC4)cc(Cl)cc3n(Cc3ccccc3)c2=O)c1
The melting point of the first is higher: 181 to 182 °C for the first, 98 to 110 °C for the second.

Compared with `O=C(O)CCC1C2CC3CC(C2)CC1C3` (stereo unspecified), `CC(CSC(=O)c1ccccc1)C(=O)N1C(C(=O)O)CC2CCCCC21` (stereo unspecified) is higher in melting point: 116 °C for the first, 184 to 186 °C for the second.

Compared with `Cc1cc(C)nc(NCSC(=S)N2CCOCC2)n1`, `N#Cc1ccc(N2CCOCC2)cc1` is lower in melting point: 119 to 121 °C for the first, 80 to 81 °C for the second.

Compared with `O=C(Cn1cncn1)c1ccc(Cl)cc1`, `CN(C)C(=O)Cc1c(-c2ccc(Cl)cc2)nn2cccnc12` is higher in melting point: 151 to 153 °C for the first, 174 to 176 °C for the second.

Compared with `O=C1c2ccccc2C(=O)N1OCn1ccnc1`, `CCN(CCOc1cccnc1F)CCN1C(=O)c2ccccc2C1=O` is lower in melting point: 158 to 160 °C for the first, 58 to 60 °C for the second.

First: CCOC(=O)c1csc(-c2ccc([N+](=O)[O-])cc2)n1
Second: CCOC(=O)c1nc(-c2ccc(F)cc2)c(CCCl)s1
The melting point of the first is higher: 156 to 158 °C for the first, 81.5 to 82.5 °C for the second.

First: CCOC(=O)c1ccc(OCCCCc2cc(C)no2)cc1
Second: CCC(CCCCc1ccccc1)(CC(=O)O)S(=O)(=O)c1ccc(OC)cc1 (stereo unspecified)
The melting point of the first is higher: 61 °C for the first, 44 to 46 °C for the second.

First: COC(=O)[C@@H]1[C@@H](C(=O)O)[C@H]2C=C[C@@H]1C2
Second: OCC1(CO)CC2C=CC1C2 (stereo unspecified)
The melting point of the first is lower: 78 to 79 °C for the first, 110 °C for the second.

First: CC(C)c1cc2c(c3c1C(=O)N(CCl)S3(=O)=O)OCO2
Second: CCC(=O)Nc1ccc(C2=NN(C(=O)CC)C(C)Cc3cc4c(cc32)OCO4)cc1 (stereo unspecified)
The melting point of the first is higher: 174 to 176 °C for the first, 152 to 154 °C for the second.

First: O=C(Cn1cccc(O)c1=O)NCCN(CCNC(=O)Cn1cccc(O)c1=O)CCNC(=O)Cn1cccc(O)c1=O
Second: CCOC(=O)CC(=O)CC(O)/C=C/c1c(-c2ccccc2)c2ccccc2c(=O)n1C (stereo unspecified)
The melting point of the first is lower: 112 to 114 °C for the first, 148 to 149 °C for the second.

First: Cc1cc(-c2ccccc2)nc(-c2cccc([N+](=O)[O-])c2)c1C(=O)NCCN1CCOCC1
Second: Cn1nc(-c2ccccc2)c(O)c1-c1ccccc1
The melting point of the first is lower: 147 to 148 °C for the first, 157 to 160 °C for the second.

Compared with `CNS(=O)(=O)C(=O)CCOc1cc(Oc2nn(C)c(C(F)(F)F)c2Cl)ccc1[N+](=O)[O-]`, `CCc1cn(C)cc(-c2ccc(Cl)c(C(F)(F)F)c2)c1=O` is lower in melting point: 170 to 172 °C for the first, 121 to 123 °C for the second.

First: CC1=C(CNC(=O)NC(C)C)c2cc(F)ccc2/C1=C\c1ccc(S(C)(=O)=O)cc1
Second: COC(=O)CC1=C(C)/C(=C/c2ccc(S(C)(=O)=O)cc2)c2ccc(F)cc21
The melting point of the first is higher: 217 °C for the first, 162 to 164 °C for the second.

Compared with `Cc1ccc(-c2ccc3cc4c(cc3c2)C(C)(C)CCC4(C)C)cc1`, `CC1(C)OC(c2ccc(S(C)(=O)=O)cc2)=C(c2ccc(O)cc2)C1=O` is higher in melting point: 91 to 92 °C for the first, 150 to 152 °C for the second.

First: Cc1cc(-c2cccc(Cl)c2C=O)ccc1F
Second: O=C1c2cccc(F)c2-n2c1nc1ccccc1c2=O
The melting point of the first is lower: 74 to 79 °C for the first, 264 to 267 °C for the second.

Compared with `CC(C)(C)OC(=O)N(CCCn1ncc2cc(C(=O)O)ccc21)c1ccccn1`, `COC(=O)C(Cc1ccc(OCCn2ccc3cccnc32)cc1)C(=O)O` (stereo unspecified) is lower in melting point: 129 to 131 °C for the first, 120 to 122 °C for the second.

First: C=Cc1[nH]c2cccc3c2c1CC1C3CC(NC(=O)N(CC)CC)CN1C (stereo unspecified)
Second: C=CC(=O)OCCCCC[C@H]1CC[C@H](c2cccc(F)c2F)CC1
The melting point of the first is higher: 145 to 150 °C for the first, 29.6 to 30.7 °C for the second.

First: COC(=O)c1ccc(C(C)(O)c2cc3cc(Cl)ccc3n2S(=O)(=O)c2ccc(C(C)C)cc2)cc1 (stereo unspecified)
Second: CC(C)Oc1cccc(NC(=O)NCc2c(-c3ccccc3)c3cc(Cl)ccc3n2C)c1
The melting point of the first is lower: 163 °C for the first, 218 to 220 °C for the second.

First: Cc1ccccc1C(=NC(=Nc1ccccc1)C1(C)CCCCC1)Nc1ccc(F)cc1
Second: Cc1ccc(C(=O)NNc2ccc(NC(=S)Nc3ccccc3)cc2)cc1
The melting point of the first is higher: 210 to 211 °C for the first, 186 to 187 °C for the second.

Compared with `COc1cccc(C(=O)N(C)C)c1-c1ccccc1`, `C=CCSc1cc(C(=O)O)cc(N)c1-c1ccccc1` is higher in melting point: 83 to 84 °C for the first, 150 °C for the second.

First: CCOCCn1c(CN2CCCN(C)CC2)nc2ccccc21
Second: CCOc1ccc(N2CCN(Cc3c[nH]c4ncccc34)CC2)cc1
The melting point of the first is lower: 119 to 122 °C for the first, 179 to 180 °C for the second.

Compared with `Oc1ccc(CN(Cc2ccc(O)c3ncccc23)Cc2ccc(O)c3ncccc23)c2cccnc12`, `CC(=O)N[C@@H](Cc1ccc(-c2cc3ccccc3c3ccccc23)cc1)C(=O)O` is lower in melting point: 175 to 178 °C for the first, 128 to 132 °C for the second.

First: N#Cc1c(N)sc2ccccc2c1=O
Second: O=c1nc(-c2cccc(Cl)n2)sc2ccccc12
The melting point of the first is higher: 295 to 299 °C for the first, 224 to 225 °C for the second.

Compared with `OCC(I)c1ccccc1` (stereo unspecified), `CCC1(c2ccccc2)OC(C(=O)O)Oc2ccc(Cl)cc21` (stereo unspecified) is higher in melting point: 71 to 72 °C for the first, 85 °C for the second.

First: CCN(CC)c1ccc(F)c2nc(Nc3ccc(Cl)cc3Cl)[nH]c12
Second: CCc1ccc(CC2N=C(c3ccc(F)cc3)c3cc(Cl)ccc3N(C)C2=O)cc1CC (stereo unspecified)
The melting point of the first is higher: 204 to 205 °C for the first, 54 to 56 °C for the second.

First: CC(C)(C)C(=O)Nc1cc(Cl)c(Cl)cn1
Second: COc1ccc(C(C)=O)cc1NC(=O)C(C)CCl (stereo unspecified)
The melting point of the first is higher: 105 to 106 °C for the first, 92 to 97 °C for the second.

Compared with `NC(=O)N(O)Cc1ccsc1`, `COC(=O)[C@H](O)[C@@H](N)c1ccc(F)cc1` is lower in melting point: 129 to 131 °C for the first, 105 °C for the second.

First: CC(C)(C)[C@H](COC(=O)OCc1ccccc1)NC(=O)[C@@H](CC(=O)OCc1ccccc1)n1ccc(-c2ccc(-c3ccncc3)cc2)c1
Second: COc1ccc(-c2ccc3c(c2)c2ccc(-c4ccc(OC)cc4)nc2n3S(=O)(=O)c2ccccc2)cc1
The melting point of the first is lower: 74 to 76 °C for the first, 206 to 208 °C for the second.

First: O=S1(=O)c2cccc3cccc(c23)N1CCN1CC=C(c2c[nH]c3ccccc23)CC1
Second: Cc1ccc(Cn2c(=O)c(-c3ccccc3)c3n(c2=O)CC=CS3)cc1
The melting point of the first is higher: 208 °C for the first, 124 to 125 °C for the second.

Compared with `CCCCCCCCCCCC#Cc1ccoc1C=O`, `CCCCCCCCNCC(O)COc1ccc(SC)cc1C` (stereo unspecified) is higher in melting point: 56 to 57 °C for the first, 59 to 60 °C for the second.

First: CC(=O)OC1CSC(Oc2cncc(-c3ccc(C)c(F)c3)c2)C(OC(C)=O)C1OC(C)=O (stereo unspecified)
Second: CC(=O)Nc1c(C)cc(OC(C)=O)c(C)c1C
The melting point of the first is lower: 159 °C for the first, 174 to 175 °C for the second.

First: Cc1noc([C@@H]2CSCc3c(O)cc(O)c(C)c3C(=O)OC[C@@H](O)C(=O)N2)n1
Second: Cc1ccnc2c1C(=O)CC(c1cc(Cl)sc1Cl)C2 (stereo unspecified)
The melting point of the first is higher: 265 to 267 °C for the first, 130 to 131 °C for the second.

First: CC(=O)OCCc1ccc(C2=NNC(=O)CC2)cc1
Second: O=C(O)Cc1ccc2c(c1)N(C1CCN(CCc3ccc(F)cc3)CC1)CC2
The melting point of the first is lower: 94 to 96 °C for the first, 130 to 132 °C for the second.

First: Cc1ccc(-c2cc(C(F)(F)F)n3cnc(C#N)c3n2)cc1
Second: CC(C)n1c(=O)ccc2cnc(Nc3cccc([N+](=O)[O-])c3)nc21
The melting point of the first is lower: 197 °C for the first, 202 to 203 °C for the second.

First: CC1=C(C(=O)c2ccc3c(c2)CN(C(N)=O)CC3)C(C)(C)CCC1
Second: CCc1cccc2c(/C=C/C(=O)N3CCCCC3)cc(OC)c(OCOC)c12
The melting point of the first is higher: 92.5 to 93.6 °C for the first, 85 to 86 °C for the second.

First: CC(C)Oc1ccc2ncn(/C=C/C(=O)O)c(=O)c2c1
Second: Cc1cc(C(=O)c2ccccc2)c(C)n1C(C)C(=O)Nc1ccccc1 (stereo unspecified)
The melting point of the first is higher: 232 to 234 °C for the first, 165 to 166 °C for the second.

Compared with `O=c1oc(-c2cc(C(F)(F)F)cc(C(F)(F)F)c2)ns1`, `COC(=O)C1=C(CF)NC(C)=C(C(=O)OC(C)C)C1c1ccccc1C(F)(F)F` (stereo unspecified) is higher in melting point: 61 to 62.5 °C for the first, 71 to 72 °C for the second.

Compared with `O=c1ccc(-c2cccc(-n3ccnc3)c2)n[nH]1`, `c1cn(Cc2ccc3[nH]c(C4CC4)nc3c2)cn1` is lower in melting point: 234 to 236 °C for the first, 184 °C for the second.

Compared with `COC(Nc1ccccc1)(OC)c1ccnc(C(=O)c2ccccc2)c1`, `O=[N+]([O-])C(CO)(CO)CCc1ccc(Sc2cccc(OCc3ccccc3)c2)cc1Cl` is lower in melting point: 123 to 124 °C for the first, 69 to 70 °C for the second.

First: CC(C)CN1C(=O)[C@@H](CC(N)=O)O[C@H](c2ccccc2Cl)c2cc(Cl)ccc21 (relative stereo)
Second: CCOC(=O)c1ncn2c1CNC(=O)c1c(Cl)cccc1-2
The melting point of the first is lower: 271 to 272 °C for the first, 278 to 279 °C for the second.

First: Cc1nc(O)sc1C(=O)CBr
Second: CCOC(=O)c1nc(C)oc1C(=O)Cl
The melting point of the first is higher: 162 °C for the first, 103 to 105 °C for the second.

Compared with `O=c1ccc(-c2c(-c3ccccc3)nn3ccccc23)nn1C1CCCCC1`, `Cc1cccnc1COc1nn2c(-c3ccccc3)nnc2cc1C12CCC(CC1)C2` is higher in melting point: 115 to 117 °C for the first, 214 to 216 °C for the second.

`CS(=O)(=O)c1ccc(-c2cnn(-c3cccc(Cl)c3)c(=O)c2SCc2ccco2)cc1` and `Cn1c(-c2ccc(-c3nccs3)cc2)cnc1[C@H](Cc1ccccn1)N(C=O)c1cc2cc(Cl)ccc2o1` cannot be ordered by melting point: 140 to 149 °C for the first, 144 to 146 °C for the second.

First: COc1cc(N)c(Cl)cc1C(=O)NCC1CCN(CCCCCNC(=O)c2ccc(Cl)cc2)CC1
Second: COc1cccc(CNC(=O)c2nc3cccc(COCc4ccc(C(=O)O)cc4)c3c(=O)[nH]2)c1
The melting point of the first is lower: 196 to 198 °C for the first, 230 to 232 °C for the second.

First: C=C=CC(=O)Nc1ccc2ncnc(Nc3cccc(Br)c3)c2c1
Second: S=C(Nc1ccc(Sc2ccc3ccccc3n2)cc1)Nc1ccc(Cl)c(Cl)c1
The melting point of the first is higher: 268 to 270 °C for the first, 125 to 126 °C for the second.

First: CN1Cc2cncn2-c2ccccc2C1=O
Second: ClC1=Nc2ccccc2Oc2c1csc2Cl
The melting point of the first is higher: 212 to 213 °C for the first, 144 to 145 °C for the second.

First: CC(Br)(CC(Cl)(Cl)Cl)c1cccc(Cl)n1 (stereo unspecified)
Second: CN(C)c1nc2c(NCc3ccccc3)ncnc2n1C1OC(CO)C(O)C1O (stereo unspecified)
The melting point of the first is lower: 42 to 45 °C for the first, 152 to 156 °C for the second.

Compared with `NC(=O)Cc1ccc(OCC(O)CNCCCn2cnc3ccccc32)cc1` (stereo unspecified), `CN(N=Cc1ccccc1)C(=NC(=O)CN1C(=O)c2ccccc2C1=O)NCCCOc1cccc(CN2CCCCC2)c1` is lower in melting point: 92 to 96 °C for the first, 84.5 °C for the second.

Compared with `CC(=O)OCC(=O)C1C(C)CC2C3CC(Cl)C4=CC(=O)C=CC4(C)C3(Cl)C(O)CC21C` (stereo unspecified), `CN1CCCC1=Nc1ncnc2c1ncn2[C@H]1C=C[C@@H](O)C1` (racemic) is lower in melting point: 238 °C for the first, 135 to 138 °C for the second.

First: CCCCCCCCCCCCCCCCCC(=O)OC[C@H]1OCC(=NO)[C@@H](O)[C@@H]1O
Second: COC(=O)NN=C(OC)OC
The melting point of the first is higher: 99 to 105 °C for the first, 78.5 to 81.5 °C for the second.

Work on `Nc1c(-c2cc(Cl)ccc2O)c2cc(Cl)c(Cl)cc2[nH]c1=O` yielded a melting point of 305 to 307 °C.
